Test results from ChEMBL document CHEMBL1157682, “In silico prediction of human carboxylesterase-1 (hCES1) metabolism combining docking analyses and MD simulations” (Bioorg Med Chem, 2010).
Several values for one entry are separate records, joined by “and”; a condition that tells them apart may be missing. Identical values can stand only once.

Target: T1, Liver carboxylesterase 1 (Homo sapiens, UniProt P23141)
T1 sequence (P23141 whole entry): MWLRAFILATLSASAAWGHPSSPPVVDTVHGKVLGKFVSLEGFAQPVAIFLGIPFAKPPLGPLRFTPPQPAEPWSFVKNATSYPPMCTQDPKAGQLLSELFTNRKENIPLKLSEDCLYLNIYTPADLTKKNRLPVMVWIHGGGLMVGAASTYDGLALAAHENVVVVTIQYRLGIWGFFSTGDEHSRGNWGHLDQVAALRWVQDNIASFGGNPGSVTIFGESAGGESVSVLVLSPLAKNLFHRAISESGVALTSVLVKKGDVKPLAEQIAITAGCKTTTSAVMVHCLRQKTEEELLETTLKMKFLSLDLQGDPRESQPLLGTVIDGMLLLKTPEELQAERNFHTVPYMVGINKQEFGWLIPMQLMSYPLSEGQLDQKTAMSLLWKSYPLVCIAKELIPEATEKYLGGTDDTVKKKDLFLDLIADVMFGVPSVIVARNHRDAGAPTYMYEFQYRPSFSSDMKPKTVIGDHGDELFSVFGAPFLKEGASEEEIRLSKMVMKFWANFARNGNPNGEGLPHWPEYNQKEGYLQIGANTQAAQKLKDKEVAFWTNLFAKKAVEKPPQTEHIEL
Test: Activity at human recombinant CES1 expressed in baculovirus-infected Spodoptera frugiperda Sf21 cells assessed as substrate hydrolysis by fluorescence assay

Structure (SMILES) | pKm
COC(=O)[C@H]1[C@@H](OC(=O)c2ccccc2)C[C@@H]2CC[C@H]1N2C [COCAINE] | 3.92
CCCCCOC(=O)Nc1nc(=O)n([C@@H]2O[C@H](C)[C@@H](O)[C@H]2O)cc1F [CAPECITABINE] | 2.89
COc1cc(C(=O)OCCCN2CCCN(CCCOC(=O)c3cc(OC)c(OC)c(OC)c3)CC2)cc(OC)c1OC [DILAZEP] | 3.81
CC1(C)[C@H](C=C(Cl)Cl)[C@H]1C(=O)OCc1cccc(Oc2ccccc2)c1 (stereo in doubt) | 5.01
CCOC(=O)[C@H](CCc1ccccc1)N[C@@H](C)C(=O)N1C(=O)N(C)C[C@H]1C(=O)O | 3.54
COc1ccc2cc([C@H](C#N)OC(=O)[C@@H]3[C@@H](C=C(Cl)Cl)C3(C)C)ccc2c1 | 5.77
COc1ccc2cc([C@H](C#N)OC(=O)[C@H]3[C@@H](C=C(Cl)Cl)C3(C)C)ccc2c1 | 5.82
CCCC(=O)Oc1ccc([N+](=O)[O-])cc1 | 3.89
CCOC(=O)C1(c2ccccc2)CCN(C)CC1 [MEPERIDINE] | 2.72
N[C@@H](CC(=O)O)C(=O)OC[C@H]1O[C@@H](n2cc(F)c(=O)[nH]c2=O)C[C@@H]1O | 2.52
COC(=O)[C@@H](c1ccccc1)[C@@H]1CCCCN1 | 4.05
COc1ccc2cc([C@@H](C#N)OC(=O)[C@H]3[C@H](C=C(Cl)Cl)C3(C)C)ccc2c1 | 5.62
COc1ccc2cc(C(C#N)OC(=O)C3C(C)(C)C3(C)C)ccc2c1 (centres undefined) | 5.82
COc1ccc2cc([C@@H](C#N)OC(=O)[C@@H]3[C@@H](C=C(Cl)Cl)C3(C)C)ccc2c1 | 6.15
CC(=O)Oc1ccc2c(C)cc(=O)oc2c1 | 3.1
N[C@@H](Cc1ccccc1)C(=O)OC[C@H]1O[C@@H](n2cc(F)c(=O)[nH]c2=O)C[C@@H]1O | 3.34
CCOC(=O)[C@H](CCc1ccccc1)N[C@@H](C)C(=O)N1Cc2ccccc2C[C@H]1C(=O)O | 3.87
CC(=O)Oc1ccc([N+](=O)[O-])cc1 [4-NITROPHENYL ACETATE] | 3.44
CCOC(=O)[C@H](CCc1ccccc1)N[C@H]1CS[C@H](c2cccs2)CN(CC(=O)O)C1=O [TEMOCAPRIL] | 3.1
COc1ccc2cc([C@H](C#N)OC(=O)[C@@H]3[C@H](C=C(Cl)Cl)C3(C)C)ccc2c1 | 6.52

Structure (SMILES) | pKm
CCOC(=O)[C@H](CCc1ccccc1)N[C@H]1CCc2ccccc2N(CC(=O)O)C1=O [BENAZEPRIL] | 3.13
COc1ccc(C(=O)N2CCCC2=O)cc1 | 4.07 and 4.02
CCOC(=O)C1=C[C@@H](OC(CC)CC)[C@H](NC(C)=O)[C@@H](N)C1 [OSELTAMIVIR] | 3.75
CC1(C)[C@H](C=C(Cl)Cl)[C@@H]1C(=O)OCc1cccc(Oc2ccccc2)c1 | 4.62
CC(=O)Oc1ccc2c3c1O[C@H]1[C@@H](OC(C)=O)C=C[C@H]4[C@@H](C2)N(C)CC[C@@]341 [DIACETYLMORPHINE] | 2.2
CC1(C)[C@@H](C=C(Cl)Cl)[C@@H]1C(=O)OCc1cccc(Oc2ccccc2)c1 (stereo in doubt) | 5.01
CCOC(=O)[C@H](CCc1ccccc1)N[C@@H](C)C(=O)N(CC(=O)O)C1Cc2ccccc2C1 | 2.82
CC(C)=C[C@H]1[C@H](C(=O)OCc2coc(Cc3ccccc3)c2)C1(C)C (relative stereo) | 5.17
CC(=O)O[C@H]1C=C[C@H]2[C@H]3Cc4ccc(O)c5c4[C@@]2(CCN3C)[C@H]1O5 | 2.08
CCc1c2c(nc3ccc(OC(=O)N4CCC(N5CCCCC5)CC4)cc13)-c1cc3c(c(=O)n1C2)COC(=O)[C@]3(O)CC [IRINOTECAN] | 2.84
COc1ccc2cc([C@@H](C#N)OC(=O)[C@H]3[C@@H](C=C(Cl)Cl)C3(C)C)ccc2c1 | 5.85
COc1ccc2cc([C@H](C#N)OC(=O)[C@H]3[C@H](C=C(Cl)Cl)C3(C)C)ccc2c1 | 5.72
CN(C)C(=O)COC(=O)Cc1ccc(OC(=O)c2ccc(NC(=N)N)cc2)cc1 [CAMOSTAT] | 3.15
COC(=O)[C@H](c1ccccc1Cl)N1CCc2sccc2C1 [CLOPIDOGREL] | 4.25
COC(=O)[C@H](c1ccccc1)[C@H]1CCCCN1 [DEXMETHYLPHENIDATE] | 4.36
CC(C)C[C@H](N)C(=O)OC[C@H]1O[C@@H](n2cc(F)c(=O)[nH]c2=O)C[C@@H]1O | 3.01
CCOC(=O)[C@H](CCc1ccccc1)N[C@H]1CCCN2CCC[C@@H](C(=O)O)N2C1=O [CILAZAPRIL] | 2.89
CC(C)[C@H](N)C(=O)OC[C@H]1O[C@@H](n2cc(F)c(=O)[nH]c2=O)C[C@@H]1O | 2.45
CC1(C)[C@H](C(=O)OCc2cccc(Oc3ccccc3)c2)[C@@H]1C=C(Cl)Cl | 4.62
